“And” between values parts separate entries of the source, which are not always exact repeats. Equal entries are not always repeated.
Legend:
Format in all cases: physicochemical
[1] = Variable humidity XRPD (VH-XRPD) at 25° C.
Excerpt: Non-ambient conditions: XRPD diffractograms were collected on a PANalytical Empyrean diffractometer using Cu Kα radiation (45 kV, 40 mA) in reflection geometry. The instrument is fitted with an Anton Paar CHC plus^+ stage fitted with graphite/Kapton windows and equipped with air cooling coupled with a proUmid MHG32 Modular Humidity Generator or a low vacuum pump system using an Edwards RV3 pump. A programmable divergence slit (in automatic mode), with a 10 mm fixed incident beam mask, Ni filter and 0.04 rad Soller slits were used on the incident beam. A PIXcel^3D detector, placed on the diffracted beam, was fitted with a programmable anti-scatter slit (in automatic mode) and 0.04 rad Soller slits. The software used for data collection was X'Pert Data Collector and the data analysed and presented using Diffrac Plus EVA or Highscore Plus. For variable humidity (VH-XRPD) experiments the samples were prepared and analysed in an Anton Paar chromed low-profile sample holder with silicon wafer insert. The measurement parameters are as per the standard screening data collection method (detailed above). For all variable humidity XRPD experiments, a pattern was recorded every hour. […] The Form 1 sample was loaded into the VH chamber, which was set to 40% RH and 25° C. and then the RH was decreased in 10% decrements to 10% RH followed by increasing the RH in 10% increments to 90% RH, while maintaining the temperature at 25° C. […] The sample then quickly transitioned from Form 1 at 80% RH to Form 2 at 90% RH. A variable humidity (VH) XRPD experiment was performed to examine how Form 3 exists under different RH conditions. […] The sample was stable as Form 2 for 8 hours at 80% RH. At 90% RH Form 2 existed for 2 hours before the sample deliquesced in the humidity chamber.

[2] = Kinetic solubility in biorelevant media; details: for Kinetic solubility, Mean conc: 37° C.
Protocol: A small-scale kinetic solubility study was carried out at a nominal concentration of 200-400 mg/ml to ensure solid material remained at the end of the experiment for XRPD analysis. Approximately 100 mg of sample—Form 1 (batch ref L17-0004-S-8002) or Form 3 (Example 5.4.1 (batch ref. 491PAL22; A-19-0132)) was weighed into a 1 ml vial and 250 μl of 0.1 M HCl was added to the vial for the 15 and 30 minute timepoints and 500 μl of a 1:1 mixture of 0.1 M HCl and FaSSIF was added to the vial for the 60 and 180 minute timepoints, The vial was agitated and maintained at 37° C.
The study was carried out in duplicate. Each sample was centrifuged to remove suspended solids. An aliquot of the supernatant was transferred to a second vial for further centrifugation and then transferred to an LC vial, diluted with an appropriate solvent and analysed by HPLC for parent compound. The residual solids were analysed by XRPD.

[3] = Compaction testing (Heckel analysis); details: for True Density: Helium Pycnometry; for Loss on Drying - end: end of compression testing; for Loss on Drying - end / Loss on Drying - start: 105° C.; for Yield pressure slow: punch speed 0.1 mm/s; for Yield pressure fast: punch speed 300 mm/s; for Loss on Drying - start: start of compression testing
Excerpt: Samples of Form 1 and Form 3 were subjected to Heckel analysis to determine the yield pressure of the material upon compression under controlled conditions. A known weight of material was compressed within a 10 mm diameter die with flat faced punches moving at a set speed. The die was lubricated with magnesium stearate in acetone. The force on the punch was accurately measured at frequent intervals whilst the displacement of the punches was used to calculate the volume of the powder. The yield pressure was calculated at slow (0.1 mm/s) and fast (300 mm/s) punch speeds to assess the time dependant component to deformation of the material. The true density of the material was determined by Helium Pycnometry (Micromeritics AccuPyc II 1340) using a purge pressure and run fill pressure of 19.5 psig and an equilibration rate of 0.02 psig. Testing was performed in duplicate. Temperature and humidity were monitored at intervals during the testing.
The data were analysed by the Compaction Analysis software programme to generate values for yield pressure (Py) using the Heckel equation: ln(1/1−D)=kP+A where D=the relative density of the compact; P=Pressure applied; and K=Gradient of the line in the linear region [Heckel, Trans. Metall. Soc. AIME 221 (1961)1001-1008].
Strain Rate Sensitivity (SRS) can be calculated to determine whether the deformation characteristics of the material change with the rate of applied force. The yield pressure at high speed compression is compared to that at slow speed using the following equation [Roberts and Roe, Chem. Eng. Sci. 42(1987) p. 903]. % SRS=100×[(Py Fast−Py Slow)/Py Slow]
Loss on drying was carried out on the samples at the start and at the end of compression testing to monitor for moisture absorption during testing. A sample size of 2.0 g±0.2 g was spread onto an aluminium tray and dried until stable at 105° C. using a Mettler HB43-S Halogen moisture balance.

[4] = 15 mins (simulated gastric), 0.1 M HCl, Form 3 = Example 5.4.1
[5] = 30 mins (simulated gastric), 0.1 M HCl
[6] = 60 mins (simulated intestinal), 1:1 0.1 M HCl and FaSSIF
[7] = 180 mins (simulated intestinal), 1:1 0.1 M HCl and FaSSIF

Row | SMILES | XRPD analysis of residual solids ([2]; 15 mins (simulated gastric)) | Kinetic solubility, Mean conc [2, 4] | XRPD analysis of residual solids ([2]; 30 mins (simulated gastric)) | Kinetic solubility, Mean conc [2, 5] | Kinetic solubility, Mean conc [2, 6] | Kinetic solubility, Mean conc [2, 7] | compaction classification [3] | sticking on punch or die wall [3] | True Density [3] | Loss on Drying - end [3] | Yield pressure slow [3] | Yield pressure fast [3] | Loss on Drying - start [3] | further results
1 | C[S+]([O-])CCCCN=C=S.OCC1OC2OC3C(CO)OC(OC4C(CO)OC(OC5C(CO)OC(OC6C(CO)OC(OC7C(CO)OC(OC1C(O)C2O)C(O)C7O)C(O)C6O)C(O)C5O)C(O)C4O)C(O)C3O (centres unmarked) [Form 1] | Form 1 | approximately 300 mg/ml | Form 1 | 318 mg/mL | approximately 180 mg/ml | approximately 180 mg/ml | soft ductile | no evidence of sticking | 1.4586 g/mL | 4.25% w/w | 76 MPa and 76.3 (±1.05) MPa | 89 MPa and 88.9 (±2.32) MPa | 4.07% w/w | solid state form (VH-XRPD) ([1]; Form 1 sample, RH reduced from 40% to 30% RH, 25° C.): intermediate phase; solid state form (VH-XRPD) ([1]; Form 1 sample, RH reduced to 20% RH, 25° C.): Form 3; solid state form (VH-XRPD) ([1]; Form 1 sample, after drying to 10% RH, RH increased to 70% RH): intermediate phase; solid state form (VH-XRPD) ([1]; Form 1 sample, after drying to 10% RH, RH increased to 80% RH): Form 1; solid state form (VH-XRPD) ([1]; Form 1 sample, after drying to 10% RH, RH increased to 90% RH): Form 2; Kinetic solubility, Mean conc ([2]; 15 mins (simulated gastric), 0.1 M HCl, Form 3 = Example 5.4.1, listed as 1): 319 mg/mL; XRPD analysis of residual solids ([2]; 60 mins (simulated intestinal)): Form 1; Kinetic solubility, Mean conc ([2]; 60 mins (simulated intestinal), 1:1 0.1 M HCl and FaSSIF, listed as 1): 191 mg/mL; XRPD analysis of residual solids ([2]; 180 mins (simulated intestinal)): Form 1; Kinetic solubility, Mean conc ([2]; 180 mins (simulated intestinal), 1:1 0.1 M HCl and FaSSIF, listed as 1): 180 mg/mL
2 | C[S+]([O-])CCCCN=C=S.OC[C@H]1O[C@@H]2O[C@H]3[C@H](O)[C@@H](O)[C@@H](O[C@H]4[C@H](O)[C@@H](O)[C@@H](O[C@H]5[C@H](O)[C@@H](O)[C@@H](O[C@H]6[C@H](O)[C@@H](O)[C@@H](O[C@H]7[C@H](O)[C@@H](O)[C@@H](O[C@H]1[C@H](O)[C@H]2O)O[C@@H]7CO)O[C@@H]6CO)O[C@@H]5CO)O[C@@H]4CO)O[C@@H]3CO [Form 3] | Form 1 | approximately 300 mg/ml | Form 1 | 298 mg/mL | approximately 180 mg/ml | approximately 180 mg/ml | moderately hard brittle/ductile | no evidence of sticking | 1.4562 g/mL | 1.13% w/w | 109 MPa and 108.7 (±2.90) MPa | 140 MPa and 140.4 (±3.65) MPa | 1.99% w/w | RH at which the form starts to convert to a different form ([1]; 25° C., increasing RH): 70%; solid state form (VH-XRPD) ([1]; Form 3 sample, RH decreased to 70% RH, persisted to 40% RH): Form 2 converted to Form 1; solid state form (VH-XRPD) ([1]; Form 3 sample, RH raised from 40% up to 60%, 25° C.): Form 3 is maintained; solid state form (VH-XRPD) ([1]; Form 3 sample, RH raised to 70%): intermediate phase; solid state form (VH-XRPD) ([1]; Form 3 sample, RH raised to 80%): Form 2; solid state form (VH-XRPD) ([1]; Form 3 sample, after dropping from 90% to 80% RH): Form 2 returned as a highly crystalline material; time sample was stable as Form 2 (VH-XRPD) ([1]; Form 3 sample, at 80% RH): 8 h; time Form 2 existed before the sample deliquesced (VH-XRPD) ([1]; Form 3 sample, at 90% RH): 2 h; Kinetic solubility, Mean conc ([2]; 15 mins (simulated gastric), 0.1 M HCl, Form 3 = Example 5.4.1, listed as 3): 298 mg/mL; Kinetic solubility, Mean conc ([2]; 60 mins (simulated intestinal), 1:1 0.1 M HCl and FaSSIF, listed as 3): 171 mg/mL; Kinetic solubility, Mean conc ([2]; 180 mins (simulated intestinal), 1:1 0.1 M HCl and FaSSIF, listed as 3): 157 mg/mL
